Values quoted from earlier work as cited in patent US11318142B2, “Pharmaceutical formulation for use in the treatment of depressive and anxiety disorders” (priority 2018, dated 2022).

Settings: in vivo

COc1ccc(C(CN(C)C)C2(O)CCCCC2)cc1 (racemic) [venlafaxine, (RS)-1-[2-dimethylamino-1-(4-methoxyphenyl)-ethyl]cyclohexanol]
half-life: ~7 h

OCCN1CCN(CCCN2c3ccccc3C=Cc3ccccc32)CC1 [opipramol, 4-[3-(5H-dibenz[b,f]azepine-5-yl)propyl]-1-piperazinethanol]
half-life: 6 to 11 h
